{
  "source": "patent US12435294B2",
  "about": "“Prevention of the oxidation of perfumery raw materials and food raw materials” (Firmenich SA, priority 2018, dated 2025)",
  "key": {"[1]": {"conditions": "leading to evolution of carbon dioxide and pyruvic acid; Krebs 1942; cited from earlier work"}, "[2]": {"experiment": "POV reduction in model citrus perfume (mixed citrus oil in 90/10 v/v ethanol/water)"}, "[3]": {"experiment": "pH of aqueous solution", "assay_type": "physicochemical", "conditions": "solution of 0.114 g in 10 mL of water"}, "[4]": {"experiment": "POV reduction in non-citrus essential oil: petitgrain oil", "conditions": "4 days treatment, 0.2 mL in 10 mL", "method": "(§1) For each oil, 20 mL was placed in separate 30 mL glass vials, and subjected to the following procedure for 8 days on a daily basis; the vial was opened to refresh the atmospheric headspace, then reclosed and shaken to maximize the gas/liquid contact, then stored on the benchtop under ambient laboratory temperature and lighting conditions. This procedure was designed to mimic the typical handling of a container in a production setting, in which the oil gets consumed in many small aliquots, rather than an entire container at a time.\n(§2) On Day 4, each oil sample was split in half, so two 10 mL aliquots were placed in separate vials to create a “Treated” and an “Untreated” sample. To the Treated sample of each oil type, AKG-DiTMEEA was added as per the Dosing chart below. […] The daily opening, shaking, and standing procedure continued for another four days until the POV measurements were taken. It can be seen that 8 days of such handling of the untreated oils caused significant increases in POV measurement."}, "[5]": {"experiment": "POV reduction in non-citrus essential oil: lavender oil", "conditions": "4 days treatment, 0.2 mL in 10 mL", "method": "as §1, §2"}, "[6]": {"experiment": "POV reduction in non-citrus essential oil: basil oil", "conditions": "4 days treatment, 0.2 mL in 10 mL", "method": "as §1, §2"}, "[7]": {"experiment": "POV reduction in non-citrus essential oil: cinnamon leaf oil", "conditions": "4 days treatment, 0.2 mL in 10 mL", "method": "as §1, §2"}, "[8]": {"experiment": "POV reduction in non-citrus essential oil: patchouli oil", "conditions": "4 days treatment, 0.2 mL in 10 mL", "method": "as §1, §2"}, "[9]": {"experiment": "POV reduction in non-citrus essential oil: cedarwood oil Virginian", "conditions": "4 days treatment, 0.2 mL in 10 mL", "method": "as §1, §2"}, "[10]": {"experiment": "POV reduction in non-citrus essential oil: star anise oil", "conditions": "4 days treatment, 0.2 mL in 10 mL", "method": "as §1, §2"}, "[11]": {"experiment": "POV reduction in sunflower oil", "conditions": "0.5081 g in 15 mL sunflower oil"}, "[12]": {"experiment": "POV reduction in consumer product spiked with oxidized limonene: antiperspirant stick", "conditions": "1% (w/w)"}, "[13]": {"experiment": "POV reduction in non-citrus essential oil: pine oil Siberian", "conditions": "4 days", "method": "as §1, §2\nFor this reason, two levels of AKG-DiTMEEA treatment were tried, ×2 and ×4 the treatment used on the other oils. […] A different, lower molecular weight 2-oxoacid salt may be a better choice."}, "[14]": {"experiment": "POV reduction in non-citrus essential oil: coriander oil", "conditions": "4 days treatment, 0.2 mL in 10 mL", "method": "as §1, §2"}, "[15]": {"conditions": "8 days* (second line, asterisk not explained)"}, "[16]": {"conditions": "Siberian (x2 Treatment Level), 0.2 mL in 5 mL"}, "[17]": {"conditions": "Siberian (x4 Treatment Level), 0.4 mL in 5 mL"}},
  "note": "Read-outs that look alike come from different tables or passages of the source.",
  "data": [
    {"smiles": "O=C(O)CC(=O)C(=O)O", "note": "[oxaloacetic acid]", "values": [
      {"measurement": "stability in aqueous solutions", "setting": "[1]", "result": "unstable in aqueous solutions"},
      {"measurement": "POV of Treated Perfume", "setting": "[2]; 0.0 min, approximately 166 mg (0.83% w/v) in 20 mL model perfume (Example 19)", "result": 9.44, "unit": "mmol/L"},
      {"measurement": "POV of Treated Perfume", "setting": "[2]; 27 min, 0.83% w/v in 20 mL model perfume (Example 19)", "result": 5.90, "unit": "mmol/L"},
      {"measurement": "POV of Treated Perfume", "setting": "[2]; 245 min, 0.83% w/v in 20 mL model perfume (Example 19)", "result": 1.91, "unit": "mmol/L"},
      {"measurement": "reduction in the POV of the formulated perfume (in words)", "setting": "[2]; 24 hours after treatment", "result": "complete reduction"},
      {"measurement": "POV of Treated Perfume", "setting": "[2]; […] (24 hours), 0.83% w/v in 20 mL model perfume (Example 19), indistinguishable from blank", "result": "0.0 indistinguishable from mmol/L"}
    ]},
    {"smiles": "O=C(O)CCC(=O)C(=O)O", "note": "[α-ketoglutaric acid, alpha-ketoglutaric acid]", "values": [
      {"measurement": "measured pH", "setting": "[3]", "result": 1.75},
      {"measurement": "reduction in the POV of the formulated perfume (in words)", "setting": "[2]", "result": "complete reduction"}
    ]},
    {"smiles": "COCCOCCN(CCOCCOC)CCOCCOC.COCCOCCN(CCOCCOC)CCOCCOC.O=C(O)CCC(=O)C(=O)O", "note": "[AKG-diTMEEA]", "values": [
      {"measurement": "% Reduction in POV", "setting": "[4]", "result": 79.9, "unit": "%"},
      {"measurement": "POV of Treated Oil", "setting": "[4]", "result": 4.28, "unit": "mmol/L"},
      {"measurement": "% Reduction in POV", "setting": "[5]", "result": 76.3, "unit": "%"},
      {"measurement": "POV of Treated Oil", "setting": "[5]", "result": 5.83, "unit": "mmol/L"},
      {"measurement": "% Reduction in POV", "setting": "[6]", "result": 89.6, "unit": "%"},
      {"measurement": "POV of Treated Oil", "setting": "[6]", "result": 2.49, "unit": "mmol/L"},
      {"measurement": "% Reduction in POV", "setting": "[7]", "result": 87.5, "unit": "%"},
      {"measurement": "POV of Treated Oil", "setting": "[7]", "result": 0.57, "unit": "mmol/L"},
      {"measurement": "% Reduction in POV", "setting": "[8]", "result": 100.0, "unit": "%"},
      {"measurement": "POV of Treated Oil", "setting": "[8]", "result": 0.00, "unit": "mmol/L"},
      {"measurement": "% Reduction in POV", "setting": "[9]", "result": 95.2, "unit": "%"},
      {"measurement": "POV of Treated Oil", "setting": "[9]", "result": 0.72, "unit": "mmol/L"},
      {"measurement": "% Reduction in POV", "setting": "[10]", "result": 89.2, "unit": "%"},
      {"measurement": "POV of Treated Oil", "setting": "[10]", "result": 0.38, "unit": "mmol/L"},
      {"measurement": "POV of treated oil", "setting": "[11]; 65 minutes since addition", "result": 11.72, "unit": "mmol/L"},
      {"measurement": "% Reduction in POV", "setting": "[11]; 65 minutes", "result": 29.2, "unit": "%"},
      {"measurement": "% Reduction in POV", "setting": "[11]; 180 mins (3 hrs)", "result": 44.5, "unit": "%"},
      {"measurement": "POV of treated oil", "setting": "[11]; 180 mins (3 hrs)", "result": 9.19, "unit": "mmol/L"},
      {"measurement": "% Reduction in POV", "setting": "[11]; 1320 mins (22 hrs)", "result": 65.0, "unit": "%"},
      {"measurement": "POV of treated oil", "setting": "[11]; 1320 mins (22 hrs)", "result": 5.80, "unit": "mmol/L"},
      {"measurement": "% Reduction in POV", "setting": "[11]; 23 days", "result": 88.7, "unit": "%"},
      {"measurement": "POV of treated oil", "setting": "[11]; 23 days", "result": 2.10, "unit": "mmol/L"},
      {"measurement": "POV of treated APS", "setting": "[12]; 150 minutes since addition, spiked with oxidized limonene", "result": 3.7, "unit": "mmol/L"},
      {"measurement": "% Reduction in POV", "setting": "[12]; 150 minutes", "result": 71.3, "unit": "%"},
      {"measurement": "% Reduction in POV", "setting": "[12]; 310 minutes (5.17 h)", "result": 78.3, "unit": "%"},
      {"measurement": "POV of treated APS", "setting": "[12]; 310 minutes (5.17 h)", "result": 3.03, "unit": "mmol/L"},
      {"measurement": "% Reduction in POV", "setting": "[12]; 26 hrs", "result": 83.2, "unit": "%"},
      {"measurement": "POV of treated APS", "setting": "[12]; 26 hrs", "result": 2.46, "unit": "mmol/L"},
      {"measurement": "% Reduction in POV", "setting": "[12]; 4 days", "result": 83.8, "unit": "%"},
      {"measurement": "POV of treated APS", "setting": "[12]; 4 days", "result": 2.04, "unit": "mmol/L"},
      {"measurement": "% Reduction in POV", "setting": "[12]; [15]", "result": 86.6, "unit": "%"},
      {"measurement": "POV of treated APS", "setting": "[12]; [15]", "result": 1.8, "unit": "mmol/L"},
      {"measurement": "% Reduction in POV", "setting": "[12]; 8 days", "result": 87.0, "unit": "%"},
      {"measurement": "POV of treated APS", "setting": "[12]; 8 days", "result": 1.77, "unit": "mmol/L"},
      {"measurement": "% Reduction in POV", "setting": "[12]; 15 days", "result": 88.4, "unit": "%"},
      {"measurement": "POV of treated APS", "setting": "[12]; 15 days", "result": 1.50, "unit": "mmol/L"},
      {"measurement": "% Reduction in POV", "setting": "[12]; 26 days", "result": 88.7, "unit": "%"},
      {"measurement": "POV of treated APS", "setting": "[12]; 26 days", "result": 1.42, "unit": "mmol/L"},
      {"measurement": "% Reduction in POV", "setting": "[13]; [16]", "result": 48.4, "unit": "%"},
      {"measurement": "POV of Treated Oil", "setting": "[13]; [16]", "result": 24.8, "unit": "mmol/L"},
      {"measurement": "% Reduction in POV", "setting": "[13]; [17]", "result": 68.4, "unit": "%"},
      {"measurement": "POV of Treated Oil", "setting": "[13]; [17]", "result": 15.21, "unit": "mmol/L"},
      {"measurement": "% Reduction in POV", "setting": "[14]", "result": 89.7, "unit": "%"},
      {"measurement": "POV of Treated Oil", "setting": "[14]", "result": 2.44, "unit": "mmol/L"}
    ]}
  ]
}
